Results from patent publication US20240002391A1, “4-ALKOXYPYRROLO[2,1-F][1,2,4]TRIAZINES AND PREPARATION AND USES THEREOF” (BioSplice Therapeutics, Inc., priority 2022, published 2024).

Target: recombinant DYRK1A kinase (Homo sapiens (Human), UniProt Q13627)
Test: DYRK1A kinase assay (Ser/Thr 18 peptide Z-lyte FRET)
Type: biochemical
Details: DYRK1A kinase activity, Z-lyte Ser/Thr 18 peptide, 15 μM ATP; method text calls the value IC50; read-out: EC50 (the source's name)
In short: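 Compounds were tested as 11-point, threefold dilution series starting at 10 μM against recombinant enzyme in a 1 h room-temperature reaction with 15 μM ATP and 4 μM peptide substrate. Phosphorylation is read by protease-coupled FRET, and IC50 values come from curve fitting.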

Row | IC50 | SMILES
1 | 0.9 nM | COc1nc(N[C@H]2C[C@@](C)(O)C2)nn2ccc(-c3ccc4nnn(CC(F)F)c4c3)c12 [Compound 710, (1s,3s)-3-((5-(1-(2,2-Difluoroethyl)-1H-benzo[d][1,2,3]triazol-6-yl)-4-methoxypyrrolo[2,1-f][1,2,4]triazin-2-yl)amino)-1-methylcyclobutan-1-ol]
2 | 178 nM | COc1nc(N[C@@H](C)c2ccccn2)nn2ccc(-c3ccn4nccc4c3)c12 [Compound 393, (S)-4-Methoxy-5-(pyrazolo[1,5-a]pyridin-5-yl)-N-(1-(pyridin-2-yl)ethyl)pyrrolo[2,1-f][1,2,4]triazin-2-amine]
3 | 3.2 nM | CNC(=O)C12CC(Nc3nc(OC)c4c(-c5ccc6nnn(C)c6c5)ccn4n3)(C1)C2 [Compound 226, 3-((4-Methoxy-5-(1-methyl-1H-benzo[d][1,2,3]triazol-6-yl)pyrrolo[2,1-f][1,2,4]triazin-2-yl)amino)-N-methylbicyclo[1.1.1]pentane-1-carboxamide]
4 | 1 nM | CCN1C[C@H](F)[C@H](Nc2nc(OC)c3c(-c4ccc5nnn(CC(F)F)c5c4)ccn3n2)C1 [Compound 732, 5-(1-(2,2-Difluoroethyl)-1H-benzo[d][1,2,3]triazol-6-yl)-N-((3R,4S)-1-ethyl-4-fluoropyrrolidin-3-yl)-4-methoxypyrrolo[2,1-f][1,2,4]triazin-2-amine]
5 | 1.8 nM | CN1CC[C@@H](Nc2nc(OC3COC3)c3c(-c4ccc5ncccc5c4)ccn3n2)C(F)(F)C1 [Compound 1091, (R)—N-(3,3-Difluoro-1-methylpiperidin-4-yl)-4-(oxetan-3-yloxy)-5-(quinolin-6-yl)pyrrolo[2,1-f][1,2,4]triazin-2-amine]
6 | 0.5 nM | CNC(=O)[C@]1(C)C[C@@H](Nc2nc(OC)c3c(-c4ccc5ncccc5c4)ccn3n2)C1 [Compound 1038, trans-3-((4-Methoxy-5-(quinolin-6-yl)pyrrolo[2,1-f][1,2,4]triazin-2-yl)amino)-N,1-dimethylcyclobutane-1-carboxamide]
7 | 110 nM | COc1nc(N[C@H]2C[C@@](C)(O)C2)nn2ccc(-c3cc4ccncc4[nH]3)c12 [Compound 283, cis-3-((4-Methoxy-5-(1H-pyrrolo[2,3-c]pyridin-2-yl)pyrrolo[2,1-f][1,2,4]triazin-2-yl)amino)-1-methylcyclobutan-1-ol]
8 | 1.1 nM | COc1nc(N[C@H]2C[C@@](C)(NC(C)=O)C2)nn2ccc(-c3ccn4nccc4c3)c12 [Compound 97, N-(cis-3-((4-Methoxy-5-(pyrazolo[1,5-a]pyridin-5-yl)pyrrolo[2,1-f][1,2,4]triazin-2-yl)amino)-1-methylcyclobutyl)acetamide]
9 | 1.9 nM | COc1nc(N[C@@H]2CN(C)C[C@@H]2F)nn2ccc(-c3ccc4nc(C)n(CC(F)F)c4c3)c12 [Compound 114, 5-(1-(2,2-Difluoroethyl)-2-methyl-1H-benzo[d]imidazol-6-yl)-N-((3R,4S)-4-fluoro-1-methylpyrrolidin-3-yl)-4-methoxypyrrolo[2,1-f][1,2,4]triazin-2-amine]
10 | 6.6 nM | COc1nc(N[C@H]2CCN(C3COC3)CC2(F)F)nn2ccc(-c3ccc4ncccc4c3)c12 [Compound 322, (S)—N-(3,3-Difluoro-1-(oxetan-3-yl)piperidin-4-yl)-4-methoxy-5-(quinolin-6-yl)pyrrolo[2,1-f][1,2,4]triazin-2-amine]
11 | 0.6 nM | COc1nc(N[C@H]2CC[C@@H](OC(F)F)CC2)nn2ccc(-c3cnc4nccn4c3)c12 [Compound 250, N-(cis-4-(Difluoromethoxy)cyclohexyl)-5-(imidazo[1,2-a]pyrimidin-6-yl)-4-methoxypyrrolo[2,1-f][1,2,4]triazin-2-amine]
12 | 0.7 nM | COc1nc(N[C@H]2CC[C@@H](OCCO)CC2)nn2ccc(-c3ccc4nccnc4c3)c12 [Compound 343, 2-((cis-4-((4-Methoxy-5-(quinoxalin-6-yl)pyrrolo[2,1-f][1,2,4]triazin-2-yl)amino)cyclohexyl)oxy)ethan-1-ol]
13 | 2.7 nM | COc1nc(N[C@H](C)C2CCOCC2)nn2ccc(-c3cnc4nccn4c3)c12 [Compound 1147, (R)-5-(Imidazo[1,2-a]pyrimidin-6-yl)-4-methoxy-N-(1-(tetrahydro-2H-pyran-4-yl)ethyl)pyrrolo[2,1-f][1,2,4]triazin-2-amine]
14 | 4.9 nM | COc1nc(N[C@@H]2CCN(C)CC2(F)F)nn2ccc(-c3cc(F)c4nccn4c3)c12 [Compound 434, (R)—N-(3,3-Difluoro-1-methylpiperidin-4-yl)-5-(8-fluoroimidazo[1,2-a]pyridin-6-yl)-4-methoxypyrrolo[2,1-f][1,2,4]triazin-2-amine]
15 | 2.7 nM | COc1nc(N[C@@H]2CCN(C3COC3)CC2(F)F)nn2ccc(-c3ccc4nc(C)n(CC(F)F)c4c3)c12 [Compound 142, (R)—N-(3,3-Difluoro-1-(oxetan-3-yl)piperidin-4-yl)-5-(1-(2,2-difluoroethyl)-2-methyl-1H-benzo[d]imidazol-6-yl)-4-methoxypyrrolo[2,1-f][1,2,4]triazin-2-amine]
16 | 2.1 nM | COc1nc(N[C@H]2CC[C@](C)(O)CC2)nn2ccc(-c3ccc4nnn(CC(F)(F)F)c4c3)c12 [Compound 911, (1r,4r)-4-((4-Methoxy-5-(1-(2,2,2-trifluoroethyl)-1H-benzo[d][1,2,3]triazol-6-yl)pyrrolo[2,1-f][1,2,4]triazin-2-yl)amino)-1-methylcyclohexan-1-ol]
17 | 1.7 nM | COc1nc(N[C@H]2CC[C@](C)(O)CC2)nn2ccc(-c3ccc4nccnc4c3)c12 [Compound 347, trans-4-((4-Methoxy-5-(quinoxalin-6-yl)pyrrolo[2,1-f][1,2,4]triazin-2-yl)amino)-1-methylcyclohexan-1-ol]
18 | 4.9 nM | COc1nc(N[C@H]2CCN(C)C[C@H]2F)nn2cc(F)c(-c3ccc4nnn(C)c4c3)c12 [Compound 630, 6-Fluoro-N-((3R,4S)-3-fluoro-1-methylpiperidin-4-yl)-4-methoxy-5-(1-methyl-1H-benzo[d][1,2,3]triazol-6-yl)pyrrolo[2,1-f][1,2,4]triazin-2-amine]
19 | 2.8 nM | COc1nc(N[C@@H]2CN(C(C)=O)C[C@@H]2F)nn2ccc(-c3cc(F)c4nc(C)n(CC(F)F)c4c3)c12 [Compound 513, 1-((3R,4S)-3-((5-(1-(2,2-Difluoroethyl)-4-fluoro-2-methyl-1H-benzo[d]imidazol-6-yl)-4-methoxypyrrolo[2,1-f][1,2,4]triazin-2-yl)amino)-4-fluoropyrrolidin-1-yl)ethan-1-one]
20 | 4.3 nM | COc1nc(N[C@@H]2COC[C@H]2O)nn2ccc(-c3ccc4nccnc4c3)c12 [Compound 1093, (3S,4R)-4-((4-Methoxy-5-(quinoxalin-6-yl)pyrrolo[2,1-f][1,2,4]triazin-2-yl)amino)tetrahydrofuran-3-ol]
21 | 2.7 nM | COc1nc(N[C@@H]2CN(C3COC3)C[C@@H]2F)nn2ccc(-c3ccc4nccnc4c3)c12 [Compound 355, N-((3R,4S)-4-Fluoro-1-(oxetan-3-yl)pyrrolidin-3-yl)-4-methoxy-5-(quinoxalin-6-yl)pyrrolo[2,1-f][1,2,4]triazin-2-amine]
22 | 2.3 nM | COc1nc(N[C@H]2CCN(C3COC3)C[C@H]2F)nn2ccc(-c3ccc4nnn(C(C)C)c4c3)c12 [Compound 688, N-((3R,4S)-3-fluoro-1-(oxetan-3-yl)piperidin-4-yl)-5-(1-isopropyl-1H-benzo[d][1,2,3]triazol-6-yl)-4-methoxypyrrolo[2,1-f][1,2,4]triazin-2-amine]
23 | 4.5 nM | COc1nc(N[C@H]2C[C@@](C)(NC(C)=O)C2)nn2cc(F)c(-c3ccc4ncccc4c3)c12 [Compound 1052, N-(cis-3-((6-Fluoro-4-methoxy-5-(quinolin-6-yl)pyrrolo[2,1-f][1,2,4]triazin-2-yl)amino)-1-methylcyclobutyl)acetamide]
24 | 14.3 nM | COc1nc(NC2CCN(CC(F)F)CC2)nn2ccc(-c3ccc4ncccc4c3)c12 [Compound 304, N-(1-(2,2-Difluoroethyl)piperidin-4-yl)-4-methoxy-5-(quinolin-6-yl)pyrrolo[2,1-f][1,2,4]triazin-2-amine]
25 | 1.6 nM | COc1nc(N[C@H]2C[C@](C)(N3CCCC3=O)C2)nn2ccc(-c3ccc4nnn(C)c4c3)c12 [Compound 223, 1-(trans-3-((4-methoxy-5-(1-methyl-1H-benzo[d][1,2,3]triazol-6-yl)pyrrolo[2,1-f][1,2,4]triazin-2-yl)amino)-1-methylcyclobutyl)pyrrolidin-2-one]
26 | 1.6 nM | COc1nc(N[C@H]2C[C@@](C)(NC(C)=O)C2)nn2ccc(-c3cc(F)c4nnn(CC(F)F)c4c3)c12 [Compound 805, N-((1s,3s)-3-((5-(1-(2,2-Difluoroethyl)-4-fluoro-1H-benzo[d][1,2,3]triazol-6-yl)-4-methoxypyrrolo[2,1-f][1,2,4]triazin-2-yl)amino)-1-methylcyclobutyl)acetamide]
27 | 5.6 nM | COc1nc(N[C@@H]2CCN(C)C[C@@H]2F)nn2ccc(-c3ccc4nccn4c3)c12 [Compound 67, N-((3S,4R)-3-Fluoro-1-methylpiperidin-4-yl)-5-(imidazo[1,2-a]pyridin-6-yl)-4-methoxypyrrolo[2,1-f][1,2,4]triazin-2-amine]
28 | 4.9 nM | COc1nc(N[C@@H]2CCC(=O)N(C)C2)nn2ccc(-c3ccc4ncccc4c3)c12 [Compound 1049, (R)-5-((4-Methoxy-5-(quinolin-6-yl)pyrrolo[2,1-f][1,2,4]triazin-2-yl)amino)-1-methylpiperidin-2-one]
29 | 5.1 nM | COc1nc(NC[C@@H]2CNCCO2)nn2ccc(-c3ccc4nnn(C)c4c3)c12 [Compound 623, (S)-4-Methoxy-5-(1-methyl-1H-benzo[d][1,2,3]triazol-6-yl)-N-(morpholin-2-ylmethyl)pyrrolo[2,1-f][1,2,4]triazin-2-amine]
30 | 7.3 nM | COc1nc(N[C@@H]2CCN(C)CC2(F)F)nn2ccc(-c3ccc4ncnn4c3)c12 [Compound 576, (R)-5-([1,2,4]Triazolo[1,5-a]pyridin-6-yl)-N-(3,3-difluoro-1-methylpiperidin-4-yl)-4-methoxypyrrolo[2,1-f][1,2,4]triazin-2-amine]
